Consider one molecule from patent US20110190227A1, “Antagonists of Prostaglandin D2 Receptors” (Amira Pharmaceuticals, Inc., priority 2008, published 2011).

Assay [1] deals with T1, human DP2 receptor (Homo sapiens, UniProt Q9Y5Y4).
T1 construct: expressed in transfected cells
T1 sequence (Q9Y5Y4 1-395): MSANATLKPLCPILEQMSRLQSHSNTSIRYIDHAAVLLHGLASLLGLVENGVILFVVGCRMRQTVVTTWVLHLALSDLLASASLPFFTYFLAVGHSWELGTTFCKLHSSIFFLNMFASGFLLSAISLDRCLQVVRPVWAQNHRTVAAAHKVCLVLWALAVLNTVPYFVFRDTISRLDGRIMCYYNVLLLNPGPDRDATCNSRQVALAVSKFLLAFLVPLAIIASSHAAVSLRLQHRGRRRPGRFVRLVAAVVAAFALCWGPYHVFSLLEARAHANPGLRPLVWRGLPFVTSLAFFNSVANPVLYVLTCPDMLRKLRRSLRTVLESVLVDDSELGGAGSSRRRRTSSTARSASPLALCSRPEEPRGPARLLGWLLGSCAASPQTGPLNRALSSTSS
Description: DP2/CRTH2 radioligand binding assay ([3H]PGD2). The conditions noted are these: membranes of HEK293 cells expressing recombinant human DP2, 1 nM [3H]PGD2; read-out: hDP2. Here is the method:
The ability of a compound to bind to the human DP2 receptor is assessed via a radioligand binding assay using [^3H]PGD2. HEK293 cells stably expressing recombinant human DP2 are resuspended in 10 mM Hepes, 7.4 containing 1 mM DTT, lysed and centrifuged at 75,000×g to pellet the membranes. The membranes are resuspended in 10 mM Hepes, 7.4 containing 1 mM DTF and 10% glycerol to approximately 5 mg protein/ml. Membranes (2-10 […]) are incubated in 96-well plates with 1 nM [^3H]PGD2 and test compound in Assay Buffer (50 mM Hepes, 10 mM MnCl2, 1 mM EDTA, plus or minus 0.2% human serum albumin, pH 7.4) for 60 minutes at room temperature. The reactions are terminated by rapid filtration through Whatman GF/C glass fibre filter plates. The filter plates were pre-soaked in 0.33% polythylenimine for 30 minutes at room temperature then washed in Wash Buffer (50 mM Hepes, 0.5 M NaCl pH 7.4) prior to harvesting. After harvesting, the filter plates are washed 3 times with 1 ml cold Wash Buffer then dried. Scintillant is then added to the plates and the radioactivity retained on the filters is determined on a Packard TopCount (Perkin Elmer). Specific binding is determined as total radioactive binding minus non-specific binding in the presence of 10 μM PGD2. IC50s were determined using GraphPad prism analysis of drug titration curves.

In assay [2] the target is T2, human DP1 receptor (Homo sapiens, UniProt Q13258).
T2 construct: tissue Biological Specialty Corporation; host or cells: human platelets, membrane preparation
T2 sequence (Q13258 1-359): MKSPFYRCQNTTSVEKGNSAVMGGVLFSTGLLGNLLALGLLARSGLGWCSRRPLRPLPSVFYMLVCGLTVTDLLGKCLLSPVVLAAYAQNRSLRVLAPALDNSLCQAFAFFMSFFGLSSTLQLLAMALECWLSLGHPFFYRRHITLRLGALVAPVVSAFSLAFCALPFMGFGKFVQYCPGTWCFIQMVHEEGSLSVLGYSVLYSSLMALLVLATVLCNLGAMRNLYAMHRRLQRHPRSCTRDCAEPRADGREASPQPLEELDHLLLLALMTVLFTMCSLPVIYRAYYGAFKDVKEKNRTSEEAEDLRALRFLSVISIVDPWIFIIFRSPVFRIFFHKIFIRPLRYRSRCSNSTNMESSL
As to the kind of experiment: DP1 radioligand membrane binding assay ([3H]BWA868C). The conditions noted are these: human platelet membranes, 2 nM [3H]BWA868C; read-out: hDP1. Here is the method:
The ability of a compound to bind to the human DP1 receptor was evaluated via a radioligand membrane binding assay using the DP1 selective synthetic ligand [^3H]BWA868C. Packed human platelets (Biological Specialty Corporation), were resuspended in 6 volumes of Hepes/HBSS buffer (10 mM Hepes, 1 mM DTT in Hanks Balanced Salt Solution (HBSS), lysed and centrifuged at 75,000×g to pellet the membranes. Membranes were resuspended in Hepes/HBSS buffer to approximately 12 mg protein/ml. Membranes (20 μg protein/well) are incubated in 96-well plates with 2 nM [^3H]BWA868C and test compound in Assay Buffer (50 mM Hepes, 10 mM MnCl2, 1 mM EDTA, plus or minus 0.2% human serum albumin, pH 7.4) for 60 minutes at room temperature. The reactions are terminated by rapid filtration through Whatman GF/C glass fibre filter plates. The filter plates were pre-soaked in 0.33% polyethylenimine for 30 minutes at room temperature then washed in Wash Buffer (50 mM Hepes, 0.5 M NaCl pH 7.4) prior to harvesting. After harvesting, the filter plates are washed 3 times with 1 ml cold Wash Buffer then dried. Scintillant is then added to the plates and the radioactivity retained on the filters is determined on a Packard TopCount (Perkin Elmer). Specific binding is determined as total radioactive binding minus non-specific binding in the presence of 10 μM BW A868C. IC50s were determined using GraphPad prism analysis of drug titration curves.

The structures appear in SMILES notation. A value given as a limit tells only on which side of the number the result lay.

On to `CS(=O)(=O)c1ccc(-c2ccc(Oc3cccc(CC(=O)O)c3)c(CSc3ccccc3)c2)cc1` [Compound 1-58, [3-(4′-Methanesulfonyl-3-phenylsulfanylmethyl-biphenyl-4-yloxy)-phenyl]-acetic acid], for which the IC50 in assay [1] is 300 to 1000 nM; in assay [2], below 300 nM.
